Key:
Test in all cases: relative viability (nuclei count vs DMSO), 5 days (fraction); higher = more cells survive
[1] = compound: Cc1cnc(CNC(=O)c2c(=O)c3ccc(N4CCCN(C)CC4)nc3n3c2sc2ccccc23)cn1 [CX-5461] + N=C(N)NC(=N)NCCc1ccccc1 [Phenformin] (partner 250 µM)
How it was run: (§1)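 Nuclei were stained with Hoechst during a one-step fixation (final 0.05% Triton X-100, 1% formaldehyde, 1 ug/ml Hoechst) carried out 5 days after dosing, then counted on 4× images. The cells, lung cancer lines in 1536-well plates, had been dosed by pin tool the day after seeding with one drug alone or a fixed anchor-drug dose plus five library-drug doses (not always all listed) in √10 steps. Relative viability is the nuclei count in treated wells divided by that in vehicle wells, and each value is the median of duplicate plates.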

[2] = compound: O=C(Nc1cc(C(F)(F)F)cc(C(F)(F)F)c1)c1cc(Cl)ccc1O [IMD-0354] + O=C(CCCCCCC(=O)Nc1ccccc1)NO [Vorinostat] (partner 1 µM)
How it was run: as §1

[3] = compound: O=C(Nc1cc(C(F)(F)F)cc(C(F)(F)F)c1)c1cc(Cl)ccc1O [IMD-0354] + CC(=O)Nc1cccc(-n2c(=O)n(C3CC3)c(=O)c3c(Nc4ccc(I)cc4F)n(C)c(=O)c(C)c32)c1 [Trametinib] (partner 0.02 µM)
How it was run: as §1

[4] = compound: O=C(Nc1cc(C(F)(F)F)cc(C(F)(F)F)c1)c1cc(Cl)ccc1O [IMD-0354] + CS(=O)(=O)N1CCN(Cc2cc3nc(-c4cccc5[nH]ncc45)nc(N4CCOCC4)c3s2)CC1 [Pictilisib] (partner 1 µM)
How it was run: as §1

Cell Line	relative viability ([1]; first compound 0.01 µM)	relative viability ([1]; first compound 0.03162 µM)	relative viability ([1]; first compound 0.1 µM)	relative viability ([1]; first compound 0.3162 µM)	relative viability ([1]; first compound 1 µM)	relative viability ([2]; first compound 0.04 µM)	relative viability ([2]; first compound 0.1265 µM)	relative viability ([2]; first compound 0.4 µM)	relative viability ([2]; first compound 1.265 µM)	relative viability ([2]; first compound 4 µM)	relative viability ([3]; first compound 0.04 µM)	relative viability ([3]; first compound 0.1265 µM)	relative viability ([3]; first compound 0.4 µM)	relative viability ([3]; first compound 1.265 µM)	relative viability ([3]; first compound 4 µM)	relative viability ([4]; first compound 0.04 µM)	relative viability ([4]; first compound 0.1265 µM)	relative viability ([4]; first compound 0.4 µM)	relative viability ([4]; first compound 1.265 µM)	relative viability ([4]; first compound 4 µM)
HCC-366	0.657	0.657	0.627	0.604	0.253	0.314	0.439	0.206	0.165	0.0652	0.479	0.404	0.251	0.0603	0.0454	0.16	0.193	0.168	0.148	0.0681
HCC-827	0.406	0.426	0.444	0.406	0.359	0.86	0.841	0.706	0.264	0.29	0.54	0.524	0.469	0.393	0.197	1.03	0.795	0.691	0.66	0.337
HOP-62	0.743	0.713	0.742	0.572	0.472	0.573	0.577	0.417	0.193	0.109	0.405	0.394	0.403	0.42	0.17	0.958	0.804	0.346	0.237	0.0877
IA-LM						0.89	0.737	0.397	1.11	0.681							0.377	0.216	0.0793	0.112
LC-2-ad	0.618	0.627	0.564	0.398	0.442	0.732	0.691	0.394	0.193	0.169	0.968	0.877	0.54	0.348	0.189	0.494	0.424	0.404	0.106	0.136
LCLC-97TM1	0.397	0.479	0.415		0.384	0.879	0.782	0.273	0.0926	0.123	0.186	0.178	0.141	0.214	0.113		0.145	0.142	0.128	0.103
LCLC-103H	0.377	0.349	0.326	0.364	0.297	0.79	0.706	0.539	0.364	0.287	0.703	0.703	0.521	0.602	0.315	0.676	0.655	0.521	0.544	0.345
LK-2	0.611	0.443	0.386		0.111	0.291	0.284		0.158	0.216	0.831	0.669		0.874	0.255	0.425	0.504	0.408	0.381	0.246
LOU-NH91	0.801	0.7	0.697		0.594	1.03	0.709	0.164	0.173	0.201	0.824	0.675	0.406	0.177	0.239	0.556	0.591	0.259	0.203	0.209
